Experimental data from patent US20140114067A1, “BENZIMIDAZOLE DERIVATIVES AS MITOCHONDRIAL FUNCTION MODULATORS” (KOREA INSTITUTE OF SCIENCE AND TECHNOLOGY, priority 2012, published 2014).

test system: HT-22 cells; experiment: Improvement in mitochondrial membrane potential dropped by amyloid beta (JC-1 dye); type: cell-based; conditions: compound 5 μM, amyloid beta 5 μM, 3 hours, JC-1 green:red ratio, amyloid beta damage = 0%, normal = 100%
Procedure: Meanwhile, the compound represented by Formula 1 according to the present invention is evaluated through a test to determine recovery of mitochondrial functions damaged by amyloid beta, as described in the following Test Example. After the test, the results are shown in terms of the percentages of mitochondrial function disorder caused by amyloid beta. The degree of mitochondrial function disorder caused by amyloid beta is taken as 0% and the normal condition in the absence of amyloid beta is shown as 100%.
To a transparent 96-well plate, HT-22 cells are inoculated in a number of 30,000 per well one day before the test. On the next day, JC-1 dye (Stratagen, USA) is diluted with Opti-MEM containing no phenol red to a concentration of 7.5 μM, and the resultant dilution is used to treat the cells for 1 hour and 15 minutes. The dyed cells are washed twice with phosphate buffer solution (PBS), followed by treatment with each compound to a final concentration of 5 μM per well. Then, the cells are cultured at 37° C. for 10 minutes. Particularly, for each drug, two wells are treated with amyloid beta (5 μM) and the other two wells are treated with the vehicle control (5 μM DMSO). Then, the cells are cultured at 37° C. for 3 hours. The fluorescence intensity of each well is read by using a fluorescence plate reader at 485/535 nm (green/J-monomer) and 560/595 nm (red/J-aggregate). Then, the ratio of green:red is calculated and the results are normalized by taking the change of the ratio between addition of amyloid beta and no-addition of amyloid beta in the vehicle control non-treated with drugs as 100%.

In order of falling “Improvement in Membrane Potential (%) (5 μM)” value:
1. O=C(Cn1c(-c2cc(Cl)ccc2Cl)nc2ccccc21)Nc1cc(Cl)cc(Cl)c1 [Compound 5, N-(3,5-dichlorophenyl)-2-(2-(2,5-dichlorophenyl)-1H-benzo[d]imidazol-1-yl)acetamide]  91%
2. Cc1ccc(C(C)C)cc1NC(=O)Cn1c(-c2ccccc2)nc2ccccc21 [Compound 4, N-(5-isopropyl-2-methylphenyl)-(2-phenyl-1H-benzo[d]imidazol-1-yl)acetamide]  91%
3. O=C(NCCN1CCCCC1)c1ccc(Cn2c(Cc3c(Cl)cccc3Cl)nc3ccccc32)cc1 [Compound 38, 4-((2-(2,6-dichlorobenzyl)-1H-benzo[d]imidazol-1-yl)methyl)-N-(3-(piperidin-1-yl)ethyl)benzamide]  89%
4. CC(C)(C)c1cc(NC(=O)Cn2c(-c3ccccc3)nc3ccccc32)cc(C(C)(C)C)c1 [Compound 13, N-(3,5-di-tert-butylphenyl)-2-(2-phenyl-1H-benzo[d]imidazol-1-yl)acetamide]  86%
5. CN1CCN(CCCNC(=O)c2ccc(Cn3c(Cc4c(Cl)cccc4Cl)nc4ccccc43)cc2)CC1 [Compound 36, 4-((2-(2,6-dichlorobenzyl)-1H-benzo[d]imidazol-1-yl)methyl)-N-(3-(4-methylpiperazin-1-yl)propyl)benzamide]  86%
6. CN1CCC(NC(=O)c2ccc(Cn3c(Cc4c(Cl)cccc4Cl)nc4ccccc43)cc2)CC1 [Compound 33, 4-((2-(2,6-dichlorobenzyl)-1H-benzo[d]imidazol-1-yl)methyl)-N-(1-methylpiperidin-4-yl)benzamide]  81%
7. COc1ccc(OC)c(Cc2nc3ccccc3n2CC(=O)Nc2cc(C(C)C)ccc2C)c1 [Compound 19, 2-(2-(2,5-dimethoxybenzyl)-1H-benzo[d]imidazol-1-yl)-N-(5-isopropyl-2-methylphenyl)acetamide]  81%
8. Cc1ccc(C(C)C)cc1NC(=O)Cc1nc2ccccc2n1Cc1ccc(C(=O)NCCCN2CCCCC2)cc1 [Compound 44]  80%
9. O=C(NCCCN1CCCC1)c1ccc(Cn2c(Cc3c(Cl)cccc3Cl)nc3ccccc32)cc1 [Compound 35, 4-((2-(2,6-dichlorobenzyl)-1H-benzo[d]imidazol-1-yl)methyl)-N-(3-(pyrrolidin-1-yl)propyl)benzamide]  79%
10. O=C(Cn1c(-c2cc(Cl)ccc2Cl)nc2cc(Cl)ccc21)Nc1cc(Cl)cc(Cl)c1 [Compound 27, 2-(5-chloro-2-(2,5-dichlorophenyl)-1H-benzo[d]imidazol-1-yl)-N-(3,5-dichlorophenyl)acetamide]  77%
11. O=C(NCCCN1CCOCC1)c1ccc(Cn2c(Cc3c(Cl)cccc3Cl)nc3ccccc32)cc1 [Compound 39, 4-((2-(2,6-dichlorobenzyl)-1H-benzo[d]imidazol-1-yl)methyl)-N-(3-morpholinopropyl)benzamide]  76%
12. Cc1ccc(C(C)C)cc1NC(=O)Cn1c(-c2ccccc2)nc2ccccc21 [Compound 14, N-(5-isopropyl-2-methylphenyl)-2-(2-phenyl-1H-benzo[d]imidazol-1-yl)acetamide]  73%
13. CN(C)C(=O)c1ccc(Cn2c(Cc3c(Cl)cccc3Cl)nc3ccccc32)cc1 [Compound 47, 4-((2-(2,6-dichlorobenzyl)-1H-benzo[d]imidazol-1-yl)methyl)-N,N-dimethylbenzamide]  73%
14. CCN1CCCC1CNC(=O)c1ccc(CSc2nc3ccccc3n2CC(=O)Nc2cc(C(C)C)ccc2C)cc1 (stereo not shown) [Compound 43, N-((1-ethylpyrrolidin-2-yl)methyl)-4-((1-(2-(5-isopropyl-2-methylphenylamino)2-oxoethyl)-1H-benzo[d]imidazol-2-ylthio)methyl)benzamide]  70%
15. O=C(Cn1c(-c2ccccc2)nc2ccccc21)Nc1cc(Cl)cc(Cl)c1 [Compound 15, N-(3,5-dichlorophenyl)-2-(2-phenyl-1H-benzo[d]imidazol-1-yl)acetamide]  69%
16. CCN1CCCC1CNC(=O)c1ccc(Cn2c(CC(=O)Nc3cc(C(C)C)ccc3C)nc3ccccc32)cc1 (stereo not shown) [Compound 41, N-((1-ethylpyrrolidin-2-yl)methyl)-4-((2-(2-(5-isopropyl-2-methylphenylamino)-2-oxoethyl)-1H-benzo[d]imidazol-1-yl)methyl)benzamide]  68%
17. Cc1ccc(C(C)C)cc1NC(=O)Cc1nc2ccccc2n1Cc1ccc(C(=O)NCCCN(C)C)cc1 [Compound 42, N-(3-(dimethylamino)propyl)-4-((2-(2-(5-isopropyl-2-methylphenylamino)2-oxoethyl)-1H-benzo[d]imidazol-1-yl)methyl)benzamide]  68%
18. Cc1ccc(C(C)C)cc1NC(=O)Cn1c(SCc2ccc(C(=O)NCCCN3CCCCC3)cc2)nc2ccccc21 [Compound 46]  67%
19. Cc1ccc(C(C)C)cc1NC(=O)Cn1c(-c2cc(Cl)ccc2Cl)nc2cc(Cl)ccc21 [Compound 26, 2-(5-chloro-2-(2,5-dichlorophenyl)-1H-benzo[d]imidazol-1-yl)-N-(5-isopropyl-2-methylphenyl)acetamide]  60%
20. Cc1ccc(C(C)C)cc1NC(=O)Cn1c(SCc2ccc(C(=O)NCCCN(C)C)cc2)nc2ccccc21 [Compound 45, N-(3-(dimethylamino)propyl)-4-((1-(2-(5-isopropyl-2-methylphenylamino)-2-oxoethyl)-1H-benzo[d]imidazol-2-ylthio)methyl)benzamide]  59%
21. Cc1ccc(C(C)C)cc1NC(=O)Cn1c(Cc2ccc(Cl)c(Cl)c2)nc2ccccc21 [Compound 21, 2-(2-(3,4-dichlorobenzyl)-1H-benzo[d]imidazol-1-yl)-N-(5-isopropyl-2-methylphenyl)acetamide]  57%
22. CC(C)(C)c1cc(NC(=O)Cn2c(Cc3ccc(Cl)c(Cl)c3)nc3ccccc32)cc(C(C)(C)C)c1 [Compound 24, N-(3,5-di-tert-butylphenyl)-2-(2-(3,4-dichlorobenzyl)-1H-benzo[d]imidazol-1-yl)acetamide]  42%
23. Cc1cccc(C(C)(C)C)c1NC(=O)Cn1c(-c2cc(Cl)ccc2Cl)nc2ccccc21 [Compound 7, N-(2-tert-butyl-6-methylphenyl)-2-(2-(2,5-dichlorophenyl)-1H-benzo[d]imidazol-1-yl)acetamide]  41%
24. COc1ccc(OC)c(-c2nc3ccccc3n2CC(=O)Nc2cc(C(C)C)ccc2C)c1 [Compound 1, 2-(2-(2,5-dimethoxyphenyl)-1H-benzo[d]imidazol-1-yl)-N-(5-isopropyl-2-methylphenyl)acetamide]  41%
25. Cc1cccc(C(C)(C)C)c1NC(=O)Cn1c(Cc2ccccc2)nc2ccccc21 [Compound 12, 2-(2-benzyl-1H-benzo[d]imidazol-1-yl)-N-(2-tert-butyl-6-methylphenyl)acetamide]  38%
